We go through 17 molecules from US20240050428A1 (Cullgen (Shanghai), Inc., priority 2020, published 2024).

Where two headings read alike, the source gives them in different places. Some results are limits rather than exact numbers.

One experiment relates to MV4;11 cells. In words: Cell viability assay (CellTiter-Glo) in MV4;11 cells, alone or with gilteritinib. It counts as cell-based. The following applies: Homo sapiens, MV4-11, 72 h, MV4;11 cells, CellTiter-Glo, read-out: MV4. In general terms: Cellular ATP, detected with luciferase, serves as a proxy for viable cell number.
For another experiment, the system named is MOLM-13 cells. Nature of the experiment: Cell viability assay (CellTiter-Glo) in MOLM-13 cells, alone or with gilteritinib. The following applies: Homo sapiens, MOLM-13, 72 h, MOLM-13 cells, CellTiter-Glo. It counts as cell-based.
[1] abbreviates: compound alone (without gilteritinib), three days, 11 IC50.
Where [2] appears, read: compound with gilteritinib 10 nM, three days, 11 IC50 gilteritinib.
The mark [3] stands for this setting: compound alone (without gilteritinib), three days, read-out: MOLM-13 IC50.
Where [4] appears, read: compound with gilteritinib 20 nM, three days, read-out: MOLM-13 IC50 gilteritinib.
Setting [5] is: with gilteritinib 10 nM, three days, 11 IC50 gilteritinib.
[6] abbreviates: with gilteritinib 20 nM, three days, read-out: MOLM-13 IC50 gilteritinib.

On to `Cc1cccc(-c2cnn(CCCCCCNc3ccc4c(c3)C(=O)N(C3CCC(=O)NC3=O)C4=O)c2)n1` (centres unmarked) [GS-498, 2-(2,6-dioxopiperidin-3-yl)-5-((6-(4-(6-methylpyridin-2-yl)-1H-pyrazol-1-yl)hexyl)amino)isoindoline-1,3-dione], for which the IC50 in the experiment on MV4;11 cells (setting [1]) lay in the range of 100 to 1000 nM; in the experiment on MV4;11 cells (setting [2]), 10 to 100 nM; in the experiment on MOLM-13 cells (setting [3]), 100 to 1000 nM; in the experiment on MOLM-13 cells (setting [4]) it was 10 to 100 nM.
As for `O=C1CCC(N2C(=O)c3ccc(CNC(=O)C(F)(F)c4cccc(-n5cc(-c6cnc7ccccc7n6)cn5)c4)cc3C2=O)C(=O)N1` (centres unmarked) [GS-340, N-((2-(2,6-Dioxopiperidin-3-yl)-1,3-dioxoisoindolin-5-yl)methyl)-2,2-difluoro-2-(3-(4-(quinoxalin-2-yl)-1H-pyrazol-1-yl)phenyl)acetamide], the IC50 in the experiment on MV4;11 cells (setting [1]) was 100 to 1000 nM; in the experiment on MV4;11 cells (setting [5]), greater than 1000 nM; in the experiment on MOLM-13 cells (setting [3]) it was greater than 1000 nM; in the experiment with MOLM-13 cells (setting [6]) it was greater than 1000 nM.
With `CN1CCN(c2cccc(-c3cnn([C@H]4C[C@H](CNc5ccc6c(c5)C(=O)N(C5CCC(=O)NC5=O)C6=O)C4)c3)n2)CC1` (stereo partly drawn) [GS-416, 2-(2,6-dioxopiperidin-3-yl)-5-(((trans-3-(4-(6-(4-methylpiperazin-1-yl)pyridin-2-yl)-1H-pyrazol-1-yl)cyclobutyl)methyl)amino)isoindoline-1,3-dione], the IC50 was greater than 1000 nM in the experiment on MV4;11 cells (setting [1]), greater than 1000 nM with MV4;11 cells (setting [2]), greater than 1000 nM in the experiment with MOLM-13 cells (setting [3]) and 100 to 1000 nM with MOLM-13 cells (setting [4]).
Regarding `O=C1CCC(N2C(=O)c3ccc(NC[C@H]4C[C@H](n5cc(-c6cnc7ccc(C8CCOCC8)cc7n6)cn5)C4)cc3C2=O)C(=O)N1` (stereo partly drawn) [GS-180, 2-(2,6-Dioxopiperidin-3-yl)-5-(((trans-3-(4-(7-(tetrahydro-2H-pyran-4-yl)quinoxalin-2-yl)-1H-pyrazol-1-yl)cyclobutyl)methyl)amino)isoindoline-1,3-dione], the IC50 in the experiment on MV4;11 cells (setting [1]) lay in the range of 100 to 1000 nM; in the experiment on MV4;11 cells (setting [5]), 10 to 100 nM; with MOLM-13 cells (setting [3]), 100 to 1000 nM; in the experiment on MOLM-13 cells (setting [6]), 10 to 100 nM.
Regarding `O=C1CCC(N2Cc3c(NC4CCCC(Nc5nccc(N6CCC(n7cc(-c8cnc9ccccc9n8)cn7)CC6)n5)C4)cccc3C2=O)C(=O)N1` (centres unmarked) [GS-125, 3-(1-Oxo-4-((3-((4-(4-(4-(quinoxalin-2-yl)-1H-pyrazol-1-yl)piperidin-1-yl)pyrimidin-2-yl)amino)cyclohexyl)amino)isoindolin-2-yl)piperidine-2,6-dione], the IC50 in the experiment with MV4;11 cells (setting [1]) was 100 to 1000 nM; in the experiment with MV4;11 cells (setting [5]), 100 to 1000 nM; in the experiment on MOLM-13 cells (setting [3]) it was greater than 1000 nM; with MOLM-13 cells (setting [6]) it was greater than 1000 nM.
Turning to `COc1ccc(-c2cn([C@H]3C[C@H](CNc4ccc5c(c4)C(=O)N(C4CCC(=O)NC4=O)C5=O)C3)nc2C2CC2)nc1` (stereo partly drawn) [GS-275, 5-(((trans-3-(3-Cyclopropyl-4-(5-methoxypyridin-2-yl)-1H-pyrazol-1-yl)cyclobutyl)methyl)amino)-2-(2,6-dioxopiperidin-3-yl)isoindoline-1,3-dione], the IC50 with MV4;11 cells (setting [1]) lay in the range of 10 to 100 nM; with MV4;11 cells (setting [5]), 10 to 100 nM; with MOLM-13 cells (setting [3]) it was 100 to 1000 nM; in the experiment on MOLM-13 cells (setting [6]) it was 10 to 100 nM.
For the molecule `O=C1CCC(N2Cc3cc(OCCC(=O)N4CCC(n5cc(-c6cnc7ccccc7n6)cn5)CC4)ccc3C2=O)C(=O)N1` (centres unmarked) [GS-485, 3-(1-oxo-5-(3-oxo-3-(4-(4-(quinoxalin-2-yl)-1H-pyrazol-1-yl)piperidin-1-yl)propoxy)isoindolin-2-yl)piperidine-2,6-dione], the IC50 in the experiment with MV4;11 cells (setting [1]), with MV4;11 cells (setting [2]), in the experiment on MOLM-13 cells (setting [3]) and in the experiment on MOLM-13 cells (setting [4]) was greater than 1000 nM in each case.
As for `O=C1CCC(N2C(=O)c3ccc(NCCC[C@H]4C[C@H](n5cc(-c6cccc(NC7CCOCC7)n6)cn5)C4)cc3C2=O)C(=O)N1` (stereo partly drawn) [GS-222, 2-(2,6-Dioxopiperidin-3-yl)-5-((3-(trans-3-(4-(6-((tetrahydro-2H-pyran-4-yl)amino)pyridin-2-yl)-1H-pyrazol-1-yl)cyclobutyl)propyl)amino)isoindoline-3-dione], the IC50 with MV4;11 cells (setting [1]) was greater than 1000 nM; in the experiment with MV4;11 cells (setting [5]), 100 to 1000 nM; in the experiment on MOLM-13 cells (setting [3]) it was greater than 1000 nM; in the experiment on MOLM-13 cells (setting [6]) it was 10 to 100 nM.
Regarding `O=C1CCC(N2C(=O)c3ccc(NCCCCCC(=O)N4CC(n5cc(-c6cnc7cccc(Br)c7n6)cn5)C4)cc3C2=O)C(=O)N1` (centres unmarked) [GS-062, 5-((6-(3-(4-(8-Bromoquinoxalin-2-yl)-1H-pyrazol-1-yl)azetidin-1-yl)-6-oxohexyl)amino)-2-(2,6-dioxopiperidin-3-yl)isoindoline-1,3-dione], the IC50 in the experiment with MV4;11 cells (with 10 nM gilteritinib, 3 days, 11 IC50 gilteritinib) is 1920 nM; in the experiment on MV4;11 cells (without gilteritinib, 3 days, 11 IC50) it was 9410 nM; in the experiment with MOLM-13 cells (with 20 nM gilteritinib, 3 days, read-out: MOLM-13 IC50 gilteritinib), 72 nM; with MOLM-13 cells (without gilteritinib, 3 days, read-out: MOLM-13 IC50), greater than 10000 nM.
Regarding `O=C1CCC(N2C(=O)c3ccc(NC[C@H]4C[C@H](n5cc(-c6cccc(C7CNC7)n6)c(C6CC6)n5)C4)cc3C2=O)C(=O)N1` (stereo partly drawn) [GS-605, 5-(((trans-3-(4-(6-(Azetidin-3-yl)pyridin-2-yl)-3-cyclopropyl-1H-pyrazol-1-yl)cyclobutyl)methyl)amino)-2-(2,6-dioxopiperidin-3-yl)isoindoline-1,3-dione], the IC50 with MV4;11 cells (setting [1]), in the experiment on MV4;11 cells (setting [2]), with MOLM-13 cells (setting [3]) and in the experiment on MOLM-13 cells (setting [4]) was greater than 1000 nM in each case.
`O=C1CCC(N2C(=O)c3ccc(NCCCCCC(=O)N4CCC(n5cc(-c6cnc7ccc(N8CCNCC8)cc7n6)cn5)CC4)cc3C2=O)C(=O)N1` (centres unmarked) [GS-526, 2-(2,6-Dioxopiperidin-3-yl)-5-((6-oxo-6-(4-(4-(7-(piperazin-1-yl)quinoxalin-2-yl)-1H-pyrazol-1-yl)piperidin-1-yl)hexyl)amino)isoindoline-1,3-dione]: the IC50 in the experiment with MV4;11 cells (setting [1]), in the experiment with MV4;11 cells (setting [2]), in the experiment with MOLM-13 cells (setting [3]) and in the experiment on MOLM-13 cells (setting [4]) was less than 10 nM each time.
Take `O=C(CN1CCCC(n2cc(-c3cnc4ccccc4n3)cn2)C1)NCc1ccc2c(c1)C(=O)N(C1CCC(=O)NC1=O)C2=O` (centres unmarked) [GS-346, N-((2-(2,6-Dioxopiperidin-3-yl)-1,3-dioxoisoindolin-5-yl)methyl)-2-(3-(4-(quinoxalin-2-yl)-1H-pyrazol-1-yl)piperidin-1-yl)acetamide]: the IC50 with MV4;11 cells (setting [1]), with MV4;11 cells (setting [5]), with MOLM-13 cells (setting [3]) and in the experiment with MOLM-13 cells (setting [6]) was greater than 1000 nM each time.
In the case of `O=C1CCC(N2C(=O)c3ccc(NC[C@H]4C[C@H](n5nc(C6CC6)c6cccnc65)C4)cc3C2=O)C(=O)N1` (stereo partly drawn) [GS-470, 5-(((trans-3-(3-cyclopropyl-1H-pyrazolo[3,4-b]pyridin-1-yl)cyclobutyl)methyl)amino)-2-(2,6-dioxopiperidin-3-yl)isoindoline-1,3-dione], the IC50 in the experiment with MV4;11 cells (setting [1]) is 10 to 100 nM; in the experiment on MV4;11 cells (setting [2]) it was less than 10 nM; with MOLM-13 cells (setting [3]) it was 10 to 100 nM; in the experiment on MOLM-13 cells (setting [4]), less than 10 nM.
In the case of `O=C1CCC(N2C(=O)c3ccc(NCCC[C@H]4C[C@@H](n5cc(-c6cnc7cc(NC8COC8)ccc7n6)c(C6CC6)n5)C4)cc3C2=O)C(=O)N1` (stereo partly drawn) [GS-586, 5-((3-(Cis-3-(3-cyclopropyl-4-(6-(oxetan-3-ylamino)quinoxalin-2-yl)-1H-pyrazol-1-yl)cyclobutyl)propyl)amino)-2-(2,6-dioxopiperidin-3-yl)isoindoline-1,3-dione], the IC50 with MV4;11 cells (setting [1]) was 10 to 100 nM; with MV4;11 cells (setting [2]) it was less than 10 nM; in the experiment on MOLM-13 cells (setting [3]) it was 10 to 100 nM; in the experiment on MOLM-13 cells (setting [4]), less than 10 nM.
Consider `O=C1CCC(N2C(=O)c3ccc(NCCC[C@H]4C[C@H](n5cc(-c6cnc7cc(C8CCNCC8)ccc7n6)cn5)C4)cc3C2=O)C(=O)N1` (stereo partly drawn) [GS-421, 2-(2,6-dioxopiperidin-3-yl)-5-((3-(trans-3-(4-(6-(piperidin-4-yl)quinoxalin-2-yl)-1H-pyrazol-1-yl)cyclobutyl)propyl)amino)isoindoline-1,3-dione], for which the IC50 in the experiment with MV4;11 cells (setting [1]) was 10 to 100 nM; in the experiment with MV4;11 cells (setting [2]), less than 10 nM; in the experiment with MOLM-13 cells (setting [3]), 10 to 100 nM; in the experiment on MOLM-13 cells (setting [4]) it was less than 10 nM.
`Cc1nn([C@H]2C[C@@H](CCCNc3ccc4c(c3)C(=O)N(C3CCC(=O)NC3=O)C4=O)C2)cc1-c1cnc2cc(N3CCN(C)CC3)ccc2n1` (stereo partly drawn) [GS-428, 2-(2,6-dioxopiperidin-3-yl)-5-((3-(cis-3-(3-methyl-4-(6-(4-methylpiperazin-1-yl)quinoxalin-2-yl)-1H-pyrazol-1-yl)cyclobutyl)propyl)amino)isoindoline-1,3-dione]: the IC50 was 10 to 100 nM in the experiment on MV4;11 cells (setting [1]), less than 10 nM in the experiment with MV4;11 cells (setting [2]), 10 to 100 nM in the experiment with MOLM-13 cells (setting [3]) and less than 10 nM with MOLM-13 cells (setting [4]).
With `O=C1CCC(N2C(=O)c3ccc(NC[C@H]4C[C@H](n5cc(-c6ncccc6NC6CCNCC6)c(C6CC6)n5)C4)cc3C2=O)C(=O)N1` (stereo partly drawn) [GS-304, 5-(((trans-3-(3-Cyclopropyl-4-(3-(piperidin-4-ylamino)pyridin-2-yl)-1H-pyrazol-1-yl)cyclobutyl)methyl)amino)-2-(2,6-dioxopiperidin-3-yl)isoindoline-1,3-dione], the IC50 in the experiment on MV4;11 cells (setting [1]), in the experiment on MV4;11 cells (setting [5]), in the experiment on MOLM-13 cells (setting [3]) and with MOLM-13 cells (setting [6]) was greater than 1000 nM in each case.
